Where two headings read alike, the source gives them in different places.
Columns and labels:
[1] = system: L363 cells; assay: L363 cell viability (MTS); assay type: cell-based, human; details: Homo sapiens
Method: Since two thirds of multiple myeloma cases involve deregulated c-MYC expression (Kuehl and Bergsagel, Blood 2012, 120, 2351; Shou, et al., Proc Natl Acad Sci USA 2000, 97, 228), we elected to evaluate the cell viability effects of Compound 1 in a multiple myeloma model. […] This suppression was maintained over 72 hours, which is notable given the characteristic rapid replenishment of the protein—a phenomenon that complicates targeting c-Myc at the protein level (FIG. 4C). This effect was maintained across a genetically diverse set of 4 multiple myeloma lines. We observed decreases in c-MYC translation in all lines tested, and this effect also correlated with decreases in viability (FIG. 4D).
Human multiple myeloma and Burkitt's Lymphoma cell lines L363, CA46, MM-1R, KMS-11, and MM-1S were cultured and authenticated as previously described (Simmons, et al., Molecular oncology 2014, 8, 261). All plasma derived cell lines were cultured in RPMI-1640 (2 mM L-glutamine, 10% fetal bovine serum (FBS), 100 U/ml penicillin, 100 μg/ml streptomycin: Gibco) and incubated at 37° C. with 5% CO2. Viability experiments were performed in quadruplicate on 96-well plates (Costar) at designated time and dose points. MTS reagent was then directly added, incubated at 37° C. for 90 min, and absorbance of MTS formazan was read at 500 nm on an Omega 640 spectrophotometer. Percentage cell viability was normalized to the absorbance of untreated (DMSO) wells. In the case of cells harvested for their protein or RNA, pellets were flash frozen and stored at −80° C. overnight prior to use. […]

[2] = system: MYC expression in L363 cells; assay: Gene expression analysis (Nanostring, qPCR), MYC; assay type: cell-based, human; details: for c-Myc expression (qPCR): L363 cells
Method: (§1) Gene expression analysis was performed on a panel of 770 cancer-associated genes in a multiplexed (nanostring) transcriptional assay. In addition to c-MYC itself, several c-Myc target genes were included in the panel, as were a number of other quadruplex-driven genes. […] Additionally, a third data set was collected comparing Compound 1 treatment to JQ-1 (a BET-bromodomain inhibitor) and quarfloxin (another quadruplex-binding small molecule).
(§2) The effects of Compound 1 on a number of known quadruplex-driven genes in the panel were examined further (FIG. 6). Expression levels of MYC, RB1, VEGFA, KRAS, and HIF1α, all of which are reported to be under the control of promoter G4s, and are expressed in L363 cells, were included in the panel of genes evaluated by Nanostring as discussed above. […] These changes in gene expression are in line with biophysical measurements of compound affinity. Corresponding data showing similar results is presented for Compounds 1 and 23 in FIGS. 14A and 14B. […] These observations further highlight the ability of Compound 1 and Compound 23 to specifically target the expression of c-Myc and related pathways.
(§3) The phenotype for c-MYC genetic knockdown in multiple myeloma was achieved through lentiviral transduction of shRNA for c-MYC, derived from the spinoculation of 293T cells and plasmids grown in STBL3 E. coli, and isolated with the Qiagen Plasmid Midi Kit. Aliquots of the plasmids were generously provided by Art Shaffer. RNA of treated myeloma cells at designated time points was isolated with the Qiagen RNeasy kit, and used with the nCounter Human Cancer Reference Kit (NanoString Technologies), surveying changes in expression for […] cancer-related human genes and 6 reference genes. Quantitative changes in expression were analyzed and grouped in the form of a heat map using the programming language, R. All other quantitative statistical packing was performed in GraphPad Prism.

[3] = system: RB1, VEGFA, KRAS, HIF1α, BCL2 expression in L363 cells; assay: Gene expression analysis (Nanostring, qPCR), other G4-associated genes; assay type: cell-based, human; details: for expression of other G-quadruplex containing genes (qPCR): L363 cells
Method: as §1, §2, §3

[4] = system: A498; assay: NCI-60 cell growth (SRB); assay type: cell-based; details: A498, Renal Cancer; 10 μM, 48 hours
Method: (§4) This example illustrates that Compounds 1 and 23 can be used in inhibit the growth of c-Myc expressing cancer cell lines in vitro. The NCI-60 panel of cancer cell lines (see Shoemaker, Nat. Rev. Cancer, 6, 813-823, 2006, and dtp.cancer.gov/discovery_development/nci-60/) was assayed for cell growth in the presence of 10 μM Compound 1 or Compound 23 for 48 hours. At 48 hours, the assay was terminated by fixation with TCA and determination of relative cell counts by addition of Sulforhodamine B (SRB, see Alley et al., Cancer Research, 48: 589-601, 1988.). Growth percent was determined by comparison of SRB reading of a duplicate plate of cells taken at the time of compound addition to the SRB reading at the termination of the treatment. The following table provides a summary of the percent of growth of each cell line in the panel compared to control (no treatment), as well as the mean delta and range of percent growth compared to control across the panel of cell lines for each treatment condition.

[5] = system: HCC-2998; assay: NCI-60 cell growth (SRB); assay type: cell-based; details: HCC-2998, Colon Cancer; 10 μM, 48 hours
Method: as §4

[6] = system: IGROV1; assay: NCI-60 cell growth (SRB); assay type: cell-based; details: IGROV1, Ovarian Cancer; 10 μM, 48 hours
Method: as §4

[7] = system: MOLT-4; assay: NCI-60 cell growth (SRB); assay type: cell-based; details: MOLT-4, Leukemia; 10 μM, 48 hours
Method: as §4

[8] = system: NCI-H322M; assay: NCI-60 cell growth (SRB); assay type: cell-based; details: Non-Small Cell Lung Cancer, 10 μM, 48 hours
Method: as §4

[9] = system: NCI-H460; assay: NCI-60 cell growth (SRB); assay type: cell-based; details: NCI-H460, Non-Small Cell Lung Cancer; 10 μM, 48 hours
Method: as §4

[10] = system: OVCAR-5; assay: NCI-60 cell growth (SRB); assay type: cell-based; details: OVCAR-5, Ovarian Cancer; 10 μM, 48 hours
Method: as §4

[11] = system: SK-MEL-28; assay: NCI-60 cell growth (SRB); assay type: cell-based; details: SK-MEL-28, Melanoma; 10 μM, 48 hours
Method: as §4

[12] = system: SK-MEL-2; assay: NCI-60 cell growth (SRB); assay type: cell-based; details: SK-MEL-2, Melanoma; 10 μM, 48 hours
Method: as §4

[13] = system: UACC-62; assay: NCI-60 cell growth (SRB); assay type: cell-based; details: UACC-62, Melanoma; 10 μM, 48 hours
Method: as §4

[14] = system: UO-31; assay: NCI-60 cell growth (SRB); assay type: cell-based; details: UO-31, Renal Cancer; 10 μM, 48 hours
Method: as §4

[15] = system: NCI-60 panel of cancer cell lines; assay: NCI-60 cell growth (SRB), summary across the panel; assay type: cell-based; details: 10 μM, 48 hours; for Growth Percent, Delta: delta across the panel; for Growth Percent, Mean: mean across the panel; for Growth Percent, Range: range across the panel
Method: as §4

[16] = L-363, viability of L363 cells, read-out: IC50
[17] = 48 hours, 10 μM BRACO-19, 10 μM Compound 1, 7.5 μM Compound 23

Structure (SMILES)	IC50 [1, 16] [µM]	c-Myc expression (qPCR) [2, 17]	expression of other G-quadruplex containing genes (qPCR) [3, 17]	Growth Percent [4] [%]	Growth Percent [5] [%]	Growth Percent [6] [%]	Growth Percent [7] [%]	Growth Percent [8] [%]	Growth Percent [9] [%]	Growth Percent [10] [%]	Growth Percent [11] [%]	Growth Percent [12] [%]	Growth Percent [13] [%]	Growth Percent [14] [%]	Growth Percent, Delta [15] [%]	Growth Percent, Mean [15] [%]	Growth Percent, Range [15] [%]	other results
Cc1ccc(NC(=O)c2c(C)oc3ccc(O)c(CN4CCCCCC4)c23)cc1 [Compound 1]	7.6	reduced c-Myc expression	minimally affecting expression of other G-quadruplex containing genes	64.12	116.36	81.22	92.81	97.51	80.25	95.63	96.60	99.26	102.82	62.74	32.50	88.39	60.47	IC50 ([1]; L-363, 72 h, after 72 hours, read-out: IC50 myeloma cell viability): 7.6 ± 1.1 µM; MYC expression (nanostring) ([2]; 10 μM, 2 h to 48 h): substantially reduced; MYC expression (qPCR) ([2]; 5, 10 or 12.5 μM, 48 hours): greatly reduced; expression of other G4-associated genes (nanostring) ([3]; 10 μM, 2 h to 48 h): minimally affected; expression of other genes (qPCR) ([3]; 5, 10 or 12.5 μM, 48 hours): minimally affected
Cc1oc2ccc(O)c(CN3CCCCCC3)c2c1C(=O)Nc1ccc(C(F)(F)F)cc1 [Compound 23]	3.6	reduced c-Myc expression	minimally affecting expression of other G-quadruplex containing genes	50.48	11.22	54.25	64.31	69.34	51.53	85.79	76.90	78.38	67.27	40.69	67.00	58.56	94.23	IC50 ([1]; L-363, L363, read-out: IC50): 3.64 µM; c-Myc expression (qPCR) ([2]; 5 μM, 24 or 48 hours): reduced c-Myc expression; expression of other G-quadruplex containing genes (qPCR) ([3]; 5 μM, 24 or 48 hours): minimally affecting expression of other G-quadruplex containing genes
